Data taken from BigSolDB 2.1.

Molecule COc1ccc2c(c1)c(CC(=O)O)c(C)n2C(=O)c1ccc(Cl)cc1 has a solubility (mole fraction) (in 1,4-dioxane, 293.15 K) of 0.0249, a solubility (mole fraction) (in 1,4-dioxane, 298.15 K) of 0.029 and a solubility (mole fraction) (in 1,4-dioxane, 303.15 K) of 0.0343. The solubility (mole fraction) (in 1,4-dioxane, 308.15 K) was 0.0416, the solubility (mole fraction) (in 1,4-dioxane, 313.15 K) was 0.0477 and the solubility (mole fraction) (in water, 293.15 K) was 7.81e-07. It also gave a solubility (mole fraction) (in water, 298.15 K) of 9.32e-07, a solubility (mole fraction) (in water, 303.15 K) of 1.1e-06 and a solubility (mole fraction) (in water, 308.15 K) of 1.27e-06. For the same molecule, the solubility (mole fraction) (in water, 313.15 K) was 1.52e-06.
